Assay results from BindingDB's records for doi:10.1021/acs.jmedchem.6b01300 (Invivogen, 2016).

Experiments:
[1] = target: T1, Stimulator of interferon genes protein (Homo sapiens, UniProt Q86WV6); experiment: Activation of STING in human THP-1-Dual cells assessed as induction of type I IFNs by measuring stimulation of NF-kappaB pathway incubated for 48 hrs by luciferase reporter gene assay
[2] = target: T1, Stimulator of interferon genes protein; experiment: Activation of STING in human THP-1-Dual cells assessed as induction of type I IFNs by measuring stimulation of IRF pathway incubated for 48 hrs by luciferase reporter gene assay

T1 sequence (Q86WV6 whole entry): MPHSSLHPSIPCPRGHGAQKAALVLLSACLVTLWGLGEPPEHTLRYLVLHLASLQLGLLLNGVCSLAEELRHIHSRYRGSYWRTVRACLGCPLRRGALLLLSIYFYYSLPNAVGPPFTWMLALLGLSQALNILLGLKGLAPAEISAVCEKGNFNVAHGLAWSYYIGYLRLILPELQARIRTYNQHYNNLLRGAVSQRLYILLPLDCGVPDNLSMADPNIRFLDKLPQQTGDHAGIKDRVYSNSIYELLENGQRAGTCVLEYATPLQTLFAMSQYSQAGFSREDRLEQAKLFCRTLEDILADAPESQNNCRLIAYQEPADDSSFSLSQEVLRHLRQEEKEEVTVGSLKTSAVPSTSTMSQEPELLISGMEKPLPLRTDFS

| Structure (SMILES) | EC50 [1] [µM] | EC50 [2] [nM] |
| --- | --- | --- |
| Nc1ncnc2c1ncn2[C@H]1C[C@@H]2OP(=O)(O)OC[C@H]3O[C@@H](n4cnc5c(O)ncnc54)[C@H](F)[C@@H]3OP(=O)(O)OC[C@H]2O1 | 32.3 | 2300 |
| Nc1ncnc2c1ncn2[C@@H]1O[C@@H]2COP(=O)(S)O[C@H]3[C@@H](O)[C@H](n4cnc5c(O)ncnc54)O[C@@H]3COP(=O)(S)O[C@H]2[C@H]1O (stereo partly specified) | 7.8 | 1600 |
| Nc1ncnc2c1ncn2[C@@H]1O[C@@H]2COP(=O)(O)O[C@H]3C[C@H](n4cnc5c(O)ncnc54)O[C@@H]3COP(=O)(O)O[C@H]2[C@H]1F | 25.5 | 1400 |
| Nc1ncnc2c1ncn2[C@@H]1O[C@@H]2COP(=O)(O)O[C@H]3[C@@H](F)[C@H](n4cnc5c(O)ncnc54)O[C@@H]3COP(=O)(O)O[C@H]2[C@H]1F | 15.4 | 1100 |
| Nc1ncnc2c1ncn2[C@H]1C[C@@H]2OP(=O)(O)OC[C@H]3O[C@@H](n4cnc5c(O)ncnc54)C[C@@H]3OP(=O)(O)OC[C@H]2O1 | 62.3 |  |
| Nc1ncnc2c1ncn2[C@@H]1O[C@@H]2COP(=O)(S)O[C@H]3[C@@H](F)[C@H](n4cnc5c(O)ncnc54)O[C@@H]3COP(=O)(S)O[C@H]2[C@H]1F (stereo partly specified) | 1.6 | 300 |
